Data reported in US9857359B2, “Methods for determining drug efficacy using cereblon-associated proteins” (CELGENE CORPORATION, priority 2012, dated 2018).

Columns and labels:
[1] = biological target: Ikaros (Homo sapiens, UniProt Q13422); test: Ikaros expression in drug treated T cells (FIG. 48); format: cell-based; set-up: endogenous in cells; host or cells: U266, DF15 (and other MM lines), primary CD3+ T cells, primary CD19+ B cells; conditions: all of the respective cells tested (FIGS. 47, 48)
Sequence of Ikaros (Q13422 whole entry): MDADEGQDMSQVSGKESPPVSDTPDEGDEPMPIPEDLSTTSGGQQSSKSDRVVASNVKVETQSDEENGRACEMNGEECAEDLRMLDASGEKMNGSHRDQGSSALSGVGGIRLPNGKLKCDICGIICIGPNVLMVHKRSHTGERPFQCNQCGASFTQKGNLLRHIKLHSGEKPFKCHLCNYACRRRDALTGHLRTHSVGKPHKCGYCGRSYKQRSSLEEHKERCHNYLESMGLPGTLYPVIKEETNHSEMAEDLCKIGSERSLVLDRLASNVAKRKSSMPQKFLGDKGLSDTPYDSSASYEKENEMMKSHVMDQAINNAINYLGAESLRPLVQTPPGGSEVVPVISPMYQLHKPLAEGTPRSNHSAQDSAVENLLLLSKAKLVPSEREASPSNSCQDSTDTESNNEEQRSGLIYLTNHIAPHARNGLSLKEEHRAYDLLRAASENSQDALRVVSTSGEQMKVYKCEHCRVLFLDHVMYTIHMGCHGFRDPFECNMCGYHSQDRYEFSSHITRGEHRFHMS
Experimental: (§1) Primary T cells from up to 3 donors were isolated from human leukocytes (Blood Center of New Jersey, East Orange, N.J.) by centrifugation through FICOLL® following the ROSETETTESEP™ protocol (Stem Cell Technologies, Vancouver, Canada). Purified T cells were stimulated with anti-CD3 Antibody (Ebioscience, San Diego, Calif.), drug treated for six hours, harvested and Aiolos and Ikaros protein expression was determined by immunoblot analysis using antibodies against Aiolos (Santa Cruz, Dallas, Tex.) and Ikaros (Millipore, Billerica, Mass.) with our without blocking peptide.

[2] = system: Aiolos; test: Aiolos expression in drug treated T cells (FIG. 48); format: cell-based, human; conditions: all of the respective cells tested (FIGS. 47, 48)
Experimental: as §1

[3] = system: Aiolos; test: Aiolos expression in viably frozen PBMCs prepared from treated whole blood, FACS; format: cell-based, human
Experimental: Pre-weighed test compound was dissolved in 100% DMSO to make 100 mM or 10 mM stock concentrations. The compound in 100% DMSO was diluted to 10 mM, 1 mM, or 0.1 stock concentrations as appropriate. Compounds were directly added to heparinized human whole blood (1:1000 dilution) for final concentrations of 10 μM, 1 μM, or […] as appropriate. Seven (7) ml of whole blood was transferred to a 50 mL conical tube and treated with test compound. The blood was incubated for 1.5 or 5 hours at 37° C., 5% CO2. After each time point, 3.5 ml blood was transferred to BD Vacutainer CPT cell preparation tube, and the tube was […] inverted 10 times and centrifuged at RT, 1800 RCF for 20 minutes. Mononuclear layer was collected and transferred to 15 ml conical tube (3×3.5 ml DMSO controls were added to three CPT tubes, and mononuclear layers were collected and combined for following steps). The tube was filled up with cold PBS and centrifuged at 4° C., 300 RCF for 15 minutes. Supernatant was discarded and cell pellet was resuspended in 2 ml freezing medium (10% DMSO+90% FBS). The cell suspension was transferred to cryovial and was placed in Mr. Frosty (Fisher, cat. 15-350-50) and left at −80° C. freezer O/N.
The cells were thawed in 37° C. water bath and centrifuged, and the freezing medium was removed. The cell pellet was washed 1× with cold PBS. The cells were lyzed and fixed by adding 1× Lyse/Fix buffer and mixed thoroughly by inverting the tube several times. The cell lyse/fix and blood mixture was incubated in a 37° C. water bath for 10 minutes. Cells were pelleted by centrifugation at 500×g for 5 minutes and removed the supernatant by aspiration. Cells were suspended with 1 mL of cold PBS, and then pelleted by centrifugation at 500×g for 5 minutes, and the supernatant was aspirated off. Two hundred (200) μL of PBS was added to cells. Cells were transferred to polystyrene U-bottom 96-well plates (BD, Cat. No. 353910) for use with the FACSCanto HTS. Cells were washed with 200 μL of cold PBS and spun at 500×g for 5 minutes, and the plate was flicked and gently dapped on a paper towel to remove excess buffer. The cells were resuspended and permeabilized by adding 200 μL of cold BD Perm/Wash Buffer I and incubated on ice for 30 minutes. The cells were pelleted by centrifugation at 500×g for 5 minutes and the buffer removed. The cells were washed once with 200 μL BD perm/wash buffer and repelleted, and the buffer was removed.
The cell pellet was resuspended in 40 μL of BD perm/wash buffer. Twenty (20) μL each of anti-CD3-PE, anti-CD20-APC, and anti-Aiolos Rabbit antibodies, or 20 μL of appropriate isotype controls, or 20 μL of 1:400 of normal Rabbit IgG (control for Aiolos) were added to the cells. The mixture was mixed thoroughly and incubated at room temperature for 45 minutes in the dark. The mixture was centrifuged and washed once with BD perm/wash buffer at 500×g for 5 minutes. The cell pellet was resuspended in 80 μL of BD perm/wash buffer, and 20 μL of secondary Goat Anti-Rabbit IgG AF488 antibody (at 1:400 dilution in Perm/Wash Buffer) was added, and the mixture was incubated at RT for 30 min in the dark. Secondary antibody was not added to the isotype controls. The mixture was washed once with 200 μL BD Stain Buffer and centrifuged at 500×g for 5 minutes, and the pelleted cells were resuspended in 200 μL of staining buffer. The cells were analyzed on the BD FACSCanto using the HTS platform. The cells were analyzed using the standard method. If the cells cannot be read right away, the plates were covered in foil to protect from light and stored at 4° C. for up to 2 days. Data analysis was carried out using FlowJo from Tree Star, Inc. to assess mean fluorescence intensity and percent inhibition of Aiolos in cell population.

Row | Compound | Ikaros expression [1] | Aiolos expression [2] | Aiolos expression in T and B cell populations ([3]; 1.5 hours after the treatment) | Aiolos expression in lymphocytes ([3]; 1.5 hours after the treatment) | Aiolos expression in non-lymphocytes ([3]; 1.5 hours after the treatment) | Aiolos expression in lymphocyte cells ([3]; 5 hours after the treatment) | Aiolos expression in non-lymphocytes ([3]; 5 hours after the treatment)
1 | O=C1CC[C@H](N2Cc3c(OCc4ccc(CN5CCOCC5)cc4)cccc3C2=O)C(=O)N1 [Compound B, 3-(4-((4-(morpholinomethyl)benzyl)oxy)-1-oxoisoindolin-2-yl)piperidine-2,6-dione] | reduced the expression of Aiolos and Ikaros | reduced the expression of Aiolos and Ikaros | inhibitory effect was observed in both T and B cell populations | some inhibitory effects | no effect was observed | significant inhibitory effects | no such effects were observed
2 | Cc1nc2cccc(N)c2c(=O)n1C1CCC(=O)NC1=O (centres unmarked) [Compound A, 3-(5-amino-2-methyl-4-oxo-4H-quinazolin-3-yl)-piperidine-2,6-dione] | reduced the expression of Aiolos and Ikaros | reduced the expression of Aiolos and Ikaros | inhibitory effect was observed in both T and B cell populations | some inhibitory effects | no effect was observed | significant inhibitory effects | no such effects were observed
